“And” between values parts separate entries of the source, which are not always exact repeats. Equal values may be shown once. Read-outs that look alike come from different tables or passages of the source.
What was measured:
[1] = tested on: 3D7-strain P. falciparum asexual parasites; test: P. falciparum asexual growth inhibition assay (Pf GIA); type: cell-based, Plasmodium falciparum; settings: Plasmodium falciparum
Method in brief: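 0.25% parasitemia, 2% Hct, RPMI/HEPES/hypoxanthine/5% Albumax; compound dose response, 72 h, 37°C, 5% CO2, 5% O2, 90% N2. Freeze-thaw, then LDH assay, A650. % inhibition vs chloroquine (50 μM)/DMSO, mean of 3 independent runs.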

HepG2 cytotoxicity assay = settings: human, HepG2 cells
Method in brief: (§1)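 HepG2 cells, 2,500 per well in MEM with 10% FBS and 1% NEAA, exposed to compounds for 48 h at 37°C, 5% CO2. Viability read by fluorescence; percent inhibition relative to 50 μM doxorubicin and DMSO controls.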

HepG2 cells [2] = test: HepG2 cytotoxicity assay; settings: for IC50: Homo sapiens, HepG2, 48 h, read-out: IC50 HepG2
Method in brief: as §1

[3] = tested on: P. berghei ookinete development; settings: for IC50: read-out: IC50 Pb ODA, dose response, at least triplicate
[4] = tested on: P. falciparum late stage (stages IV-V) gametocytes; set-up: method as in Almela et al 2016; settings: TCAMS screen comparison; ref Almela et al 2016; read-out: Pf GCT ATP IC50; cited from earlier work
[5] = tested on: P. falciparum female gametocytes; set-up: method as in Miguel-Blanco et al 2017; settings: TCAMS screen comparison; ref Miguel-Blanco et al 2017; read-out: Pf FGAA IC50; cited from earlier work
[6] = tested on: P. falciparum oocyst intensity; set-up: method as in Colmenarejo et al., 2018; settings: 2 μM; ref Colmenarejo et al., 2018; cited from earlier work
[7] = tested on: P. falciparum male gametogenesis; set-up: method as in Colmenarejo et al., 2018; settings: 2 μM; ref Colmenarejo et al., 2018; cited from earlier work
HepG2 cells [8] = settings: cited from earlier work
[9] = tested on: P. berghei ookinete development; test: microbe, parasite or virus in culture; settings: Plasmodium berghei
[10] = tested on: P. berghei oocyst intensity in Anopheles stephensi mosquitoes; test: P. berghei standard membrane feeding assay (Pb SMFA); settings: for inhibition at 1 µM: read-out: % inhibition Pb SMFA 1 μM (±SEM), inhibition of oocyst intensity at 1 μM
[11] = tested on: P. falciparum male gametocytes; test: P. falciparum Dual Gamete Formation Assay (Pf DGFA), male readout; settings: for Pf DGFA Male, Expt 1 / Pf DGFA Male, Expt 2 / Pf DGFA Male, Expt 3 / Pf DGFA Male, Expt 4: 1µM; for % inhibition Pf DGFA (male) 1 μM (±SEM): mean of four experiments; for inhibition at 1 µM: Plasmodium falciparum, read-out: % inhibition Pf DGFA (male) 1 μM (±SEM), 1 μM, mean of four experiments
[12] = tested on: P. falciparum female gametocytes; test: P. falciparum Dual Gamete Formation Assay (Pf DGFA), female readout; settings: for Pf DGFA Female, Expt 1 / Pf DGFA Female, Expt 2 / Pf DGFA Female, Expt 3 / Pf DGFA Female, Expt 4: 1µM; for inhibition at 1 µM: Plasmodium falciparum, read-out: % inhibition Pf DGFA (female) 1 μM (±SEM), 1 μM, mean of four experiments
[13] = 3D7, dose response confirmation, read-out: Pf asexual growth inhibition assays IC50
[14] = 3D7, 72 h, LDH readout, read-out: IC50 Pf Asexual
[15] = read-out: % inhibition, Replicate A
[16] = read-out: % inhibition, Replicate B
[17] = read-out: IC50 Pb ODA, dose response, at least triplicate

Row | Structure (SMILES) | IC50 [1, 13] [nM] | IC50 [1, 14] [nM] | IC50 at 48 h (HepG2 cytotoxicity assay) [nM] | IC50 (HepG2 cells [2]) [nM] | IC50 [3] | inhibition at 1 µM [9, 15] [%] | inhibition at 1 µM [9, 16] [%] | IC50 [9, 17] [µM] | inhibition at 1 µM [10] [%] | Pf DGFA Male, Expt 1 [11] | Pf DGFA Male, Expt 2 [11] | Pf DGFA Male, Expt 3 [11] | Pf DGFA Male, Expt 4 [11] | % inhibition Pf DGFA (male) 1 μM (±SEM) [11] [%] | inhibition at 1 µM [11] [%] | Pf DGFA Female, Expt 1 [12] | Pf DGFA Female, Expt 2 [12] | Pf DGFA Female, Expt 3 [12] | Pf DGFA Female, Expt 4 [12] | inhibition at 1 µM [12] [%] | other results
1 | CCC1CN2CCc3cc(OC)c(OC)cc3C2CC1CC1NCCc2cc(OC)c(OC)cc21 (stereo not shown) [TCMDC-125849] | 42 | 41.9 | 24000 | 24000 | > 250 nM and 268 nM | 118 | 98.5 | 0.268 | 71.4 | 77.97 | 55.40 | 60.36 | 68.13 | 65.46 | 65.5 | 99.68 | 99.20 | 99.79 | 98.70 | 99.3 | Unified cytotox (HepG2 cells [2]; human): 14.64 µM; HepG2 cytoxicity (HepG2 cells [2]; value reported with the Pb ODA screen, this manuscript): 23.99 µM; IC50 [4]: 120 nM; IC50 [5]: 1820 nM; inhibition of oocyst intensity in P. falciparum [6]: 100%; inhibition of male gametogenesis in P. falciparum [7]: total inhibition; HepG2 cytoxicity (HepG2 cells [8]; value reported with the Pf FGAA screen, ref Miguel-Blanco et al 2017): 2.24 µM; HepG2 cytoxicity (HepG2 cells [8]; value reported with the Pf GCT ATP screen, ref Almela et al 2016): 17.68 µM; IC50 ([9]; read-out: Pb ODA IC50 (µM), this manuscript): 0.27 µM; % inhibition Pb SMFA 1 μM (±SEM) ([10]; inhibition of oocyst intensity at 1 μM): 71.4%; % inhibition Pf DGFA (female) 1 μM (±SEM) ([12]; 1 μM, mean of four experiments): 99.34%
2 | NC(=O)c1ccccc1Nc1nc(Nc2cccc(N3CCN(CCO)CC3)c2)ncc1Cl [TCMDC-134114] | 22 | 21.5 | 41700 | 41700 | – | 106 | 96.7 | < 0.06 | 97 | 100.00 | 99.14 | 99.70 | 100.00 | 99.71 | – | 18.27 | -46.13 | -5.85 | -25.02 | -14.7 | Pb ODA (this manuscript) HepG2 cytoxicity (HepG2 cells [2]; HepG2 cytotoxicity listed with the Pb ODA data set (this manuscript)): 41.69 µM; Assay tox ratio Pb ODA (red: <10-fold selectivity; green: >10-fold) [3]: 747.08; Is compound selective in assay? Pb ODA active? [3]: 1 (key: 1: YES; 0: NO); IC50 ([9]; read-out: Pb ODA (this manuscript) IC50 (µM), P. berghei ookinete development assay, this manuscript): 0.0558 µM; IC50 ([9]; read-out: Pb Ookinete development assay IC50 (µM), dose response confirmation): 0.056 µM
3 | COc1ccc2ncc(F)c(CCN3CCC(NC(=O)c4ccc5c(n4)NC(=O)CS5)C(O)C3)c2n1 (stereo not shown) [TCMDC-135907] | 2020 | 2020 | 42200 | 42200 | 381 nM | 99.8 | 69.5 | > 0.25 | 56.2 | 27.09 | -8.08 | -8.79 | 59.50 | – | 17.4 | 25.41 | -9.01 | -10.92 | -26.87 | – | HepG2 cytoxicity (Pb ODA, this manuscript) (HepG2 cells [2]; HepG2, this manuscript): 42.17 µM; Unified cytotox (HepG2 cells [2]; HepG2 values of the three screens unified): 42.17 µM; Is compound selective in assay? Pb ODA active? ([3]; 1: YES, 0: NO): 1 (1: YES); IC50 ([9]; read-out: Pb ODA IC50, this manuscript): 0.38 µM
